Laboratory results: patent US20100160391A1, “Substituted Aminopyridines as Fluorescent Reporters for Amide Hydrolases” (priority 2006, published 2010)

Experiments:
[1] = target: T1, human FAAH, microsomes from FAAH cells (Homo sapiens, UniProt O00519); assay: Specific activity, microsomes from FAAH cells; type: biochemical
T1 construct: made in house; host or cells: Trichoplusia ni High Five cells infected with recombinant baculovirus Ac-hFAAH; microsomal fraction
T1 sequence (O00519 1-579): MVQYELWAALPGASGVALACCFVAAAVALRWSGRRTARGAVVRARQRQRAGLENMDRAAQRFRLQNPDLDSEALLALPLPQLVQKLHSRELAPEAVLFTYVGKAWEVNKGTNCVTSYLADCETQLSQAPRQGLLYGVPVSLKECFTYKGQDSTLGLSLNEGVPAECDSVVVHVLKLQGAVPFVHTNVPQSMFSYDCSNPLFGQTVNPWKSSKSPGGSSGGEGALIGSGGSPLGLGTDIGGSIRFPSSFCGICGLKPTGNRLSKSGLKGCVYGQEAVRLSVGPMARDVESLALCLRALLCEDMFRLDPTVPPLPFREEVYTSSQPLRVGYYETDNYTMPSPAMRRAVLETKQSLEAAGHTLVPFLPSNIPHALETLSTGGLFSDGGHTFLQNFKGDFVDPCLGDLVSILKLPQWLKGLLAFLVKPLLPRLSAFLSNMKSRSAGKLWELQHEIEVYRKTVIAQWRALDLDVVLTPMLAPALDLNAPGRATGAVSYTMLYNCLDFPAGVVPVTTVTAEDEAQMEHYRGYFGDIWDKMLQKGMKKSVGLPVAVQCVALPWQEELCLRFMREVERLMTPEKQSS
Protocol: Preparation of recombinant human FAAH. Transgenic expression of the human FAAH in a baculovirus system was performed by following the method described in Nishi et al., Arch. Biochem. Biophys., 445:115-123 (2006). The cDNA encoding human FAAH (GenBank Accession No. NM_001441) was amplified by PCR using a human liver cDNA library (Invitrogen; Carlsbad, Calif.) as a template. The primer pair was 5′-[…]-3′ and 5′-[…]-3′. BglII and EcoRI endonuclease sites (underlined) were incorporated just upstream of the start codon and downstream of the stop codon of the coding sequence of FAAH, respectively. The PCR products were cloned into a pCR2.1 vector (Invitrogen) and the nucleotide sequence was verified by DNA sequencing. The cDNA fragments were then excised and directionally ligated to the BglII and EcoRI sites of the baculovirus transfer vector pAcUW21 (Lopez-Ferber et al., Baculovirus transfer vectors, in “Baculovirus Expression Protocols,” Richardson (Ed.), pp 25-63, Humana Press, Totowa, N.J., 1995). Recombinant baculoviruses harboring the human FAAH gene, Ac-hFAAH, were generated by co-transfection of Spodoptera frugiperda-derived Sf21 cells with the recombinant transfer vector plasmid and Bsu36I-cleaved BacPAK6 viral DNA (Clontech Laboratories; Mountain View, Calif.) as described in O'Reilly et al., Baculovirus Expression Vectors: A Laboratory Manual, Oxford University Press, New York, 1992. Trichoplusia ni-derived High Five cells (1×10^6 cells/ml) were inoculated with a high titer of Ac-hFAAH. At 72 hours post-infection, the infected cells were harvested by centrifugation at 2,000×g for 20 min at 4° C. and suspended in 50 mM Tris-HCl (pH 8.0) containing 150 mM NaCl, 1 mM EDTA, 1 μM pepstatin, 100 μM leupeptin, and 0.1 mg/ml aprotinin. The cell suspension was then homogenized using a Polytron homogenizer and centrifuged at 10,000×g for 20 min at 4° C. The microsomal fraction was collected by ultracentrifugation of the supernatant at 100,000×g for 60 min at 4° C. The pellet was resuspended in 20 mM Tris-HCl (pH 8.0) containing 10% (w/v) glycerol and 1% (w/v) Triton-X 100 and stored at −80° C. until use.
(§1) Comparison of the lowest detection limits of protein concentration of FAAH toward colorimetric and fluorescent substrates. In general, all assays were performed in 96-well styrene flat-bottom microtiter plates with a Spectra Max M2 spectrophotometer at 37° C. for […]. The total volume of each well was 201 μl consisting of 0.1 M sodium phosphate buffer (pH 8.0) (190 μl) containing 1% glycerol and 0.1% Triton-X 100, stock or diluted protein solution (10 μl), and the substrate solution (1 μl) in ethanol (final concentration 200 μM for 10, 11, 13 or 14) or in DMSO (final concentration 25 μM for 12, 15, or 16; 50 μM for 17). The lowest detection limits of microsomal fatty acid amide hydrolase (FAAH) by substrates were determined by the fact that the signal at 10 min after kinetic measurements are equal to or over three times the noise or basal line at 0 min. Colorimetric substrate (16) assays were performed in clear 96-well microtititer plates using an absorbance wavelength at 382 nm. The fluorescent substrates containing 5-amino-2-methoxypyridine (e.g., 10, 13) were measured at an excitation wavelength (302 nm), emission wavelength (396 nm), and auto cutoff wavelength (325 nm). Similarly, the fluorescent substrates containing 5-amino-2-methoxy-6-methylpyridine (e.g., 11, 14, and 17) were measured at an excitation wavelength (304 nm), emission wavelength (392 nm), and an auto cutoff wavelength of 325 nm. In addition, an excitation wavelength (366 nm), emission wavelength (496 nm), and auto cutoff wavelength (495 nm) were used for the substrates (e.g., 12 and 15) containing 7-amino-4-trifluoromethyl coumarin.
Specific activity determination. The assays for specific activities were performed as described above for the sensitivity assay. […]

[2] = system: amidases, human liver microsomes; assay: Specific activity, human liver microsomes; type: biochemical; conditions: pH 8.0, 37° C.; NM = not measurable at the same protein concentration as other substrates
Protocol: as §1
Specific activity determination. The assays for specific activities were performed as described above for the sensitivity assay. The specific activity presented is based on the following: 1) the signal after a 10 min enzymatic reaction was at least 3 fold the baseline signal at 0 min, and 2) the amount of hydrolyzed substrate during a 10 min period was less than 10% of the total amount of the substrate added. To correct for protein-induced fluorescence quenching, a standard curve of 5-amino-2-methoxypyridine (6) or 5-amino-2-methoxy-6-methylpyridine (8) was constructed in the presence of the same protein concentration used for the assay of that enzyme.

CCCCCCCC(=O)Nc1ccc(OC)nc1 [Compound 13, N-(6-methoxypyridin-3-yl) octanamide]
enhancement of activity, microsomes from FAAH-expressing cells compared with High Five cells [1]: 254 times
preference of FAAH for substrate (13) over (14), specific activity ([1]; Table 4): 10 times
Specific activity, Microsomes from FAAH cells ([1]; pH 8.0, 37° C., NM = not measurable at the same protein concentration as other substrates): 202.6 ± 3.3 nmol/min/mg protein
Specific activity, Human liver microsomes [2]: 0.46 ± 0.06 nmol/min/mg protein
melting point: 61.2 to 61.7 °C
